Like-named read-outs stand apart in the source and are kept apart here.
What was measured:
[1] = system: leukemia RPMI-8226; test: MTT antiproliferative assay
[2] = system: leukemia SR; test: MTT antiproliferative assay; details: Homo sapiens, read-out: Cytotoxicity IC50 L.SR
[3] = system: UACC-62; test: NCI single-dose screen (SRB); type: cell-based; details: Homo sapiens; Melanoma UACC-62; 10^−5 M; read-out: Growth inhibition percentage
Experimental: (§1) The methodology of the NCI anticancer screening was described in detail elsewhere (http://www.dtp.nci.nih.gov). […] Tested compounds were added to the culture at a single concentration (10^−5 M) and the cultures were incubated for 48 h. End-point determinations were made with a protein binding dye, SRB. Results for each tested compound were reported as the percentage growth of the treated cells when compared to the untreated control cells. The percentage growth was evaluated spectrophotometrically versus controls not treated with test agents. All experiments were repeated three times (Table 1).
(§2) Briefly, the protocol was performed on 60 human tumor cell lines derived from different nine neoplastic diseases. […] If the results obtained met selection criteria, then the compound was tested again on all 60 cell lines in 5× 10-fold dilutions with the top dose being 10^−4 M or 150 μg/mL. Detailed methods are described in the Supplementary Materials related to this article.
(§3) on their site (http://www.dtp.nci.nih.gov). But briefly, the protocol performed at sixty human
(§4) National Cancer Institute, Bethesda, USA. If the results obtained meet selection criteria, then the
(§5) 10-4 molar or 150 μg/mL. […]

[4] = system: SK-MEL-5; test: NCI single-dose screen (SRB); type: cell-based; details: Homo sapiens; Melanoma SK-MEL-5; 10^−5 M; read-out: Growth inhibition percentage
Experimental: as §1, §2, §3, §4, §5

[5] = system: UO-31; test: NCI single-dose screen (SRB); type: cell-based; details: Homo sapiens; Renal Cancer UO-31; 10^−5 M; read-out: Growth inhibition percentage
Experimental: as §1, §2, §3, §4, §5

[6] = system: COLO 205; test: NCI single-dose screen (SRB); type: cell-based; details: Homo sapiens; Colon Cancer COLO 205; 10^−5 M; read-out: Growth inhibition percentage
Experimental: as §1, §2, §3, §4, §5

[7] = system: M14; test: NCI single-dose screen (SRB); type: cell-based; details: Homo sapiens; Melanoma M14; 10^−5 M; read-out: Growth inhibition percentage
Experimental: as §1, §2, §3, §4, §5

[8] = system: HCT-15; test: NCI single-dose screen (SRB); type: cell-based; details: Homo sapiens; Colon Cancer HCT-15; 10^−5 M; read-out: Growth inhibition percentage
Experimental: as §1, §2, §3, §4, §5

[9] = system: MALME-3M; test: NCI single-dose screen (SRB); type: cell-based; details: Homo sapiens; Melanoma MALME-3M; 10^−5 M; read-out: Growth inhibition percentage
Experimental: as §1, §2, §3, §4, §5

[10] = system: PC-3; test: NCI single-dose screen (SRB); type: cell-based; details: Homo sapiens; Prostate Cancer PC-3; 10^−5 M; read-out: Growth inhibition percentage
Experimental: as §1, §2, §3, §4, §5

[11] = system: SF-295; test: NCI single-dose screen (SRB); type: cell-based; details: Homo sapiens; CNS Cancer SF-295; 10^−5 M; read-out: Growth inhibition percentage
Experimental: as §1, §2, §3, §4, §5

[12] = system: SNB-75; test: NCI single-dose screen (SRB); type: cell-based; details: Homo sapiens; CNS Cancer SNB-75; 10^−5 M; read-out: Growth inhibition percentage
Experimental: as §1, §2, §3, §4, §5

[13] = system: BT-549; test: NCI single-dose screen (SRB); type: cell-based; details: Homo sapiens; Breast Cancer BT-549; 10^−5 M; read-out: Growth inhibition percentage
Experimental: as §1, §2, §3, §4, §5

[14] = system: SR; test: NCI single-dose screen (SRB); type: cell-based; details: Homo sapiens; Leukemia SR; 10^−5 M; read-out: Growth inhibition percentage
Experimental: as §1, §2, §3, §4, §5

[15] = system: T-47D; test: NCI single-dose screen (SRB); type: cell-based; details: Homo sapiens, T47D; Breast Cancer T-47D; 10^−5 M; read-out: Growth inhibition percentage
Experimental: as §1, §2, §3, §4, §5

[16] = system: HT29; test: NCI single-dose screen (SRB); type: cell-based; details: Homo sapiens, HT-29; Colon Cancer HT29; 10^−5 M; read-out: Growth inhibition percentage
Experimental: as §1, §2, §3, §4, §5

[17] = system: OVCAR-5; test: NCI single-dose screen (SRB); type: cell-based; details: Homo sapiens; Ovarian Cancer OVCAR-5; 10^−5 M; read-out: Growth inhibition percentage
Experimental: as §1, §2, §3, §4, §5

[18] = system: CAKI-1; test: NCI single-dose screen (SRB); type: cell-based; details: Homo sapiens; Renal Cancer CAKI-1; 10^−5 M; read-out: Growth inhibition percentage
Experimental: as §1, §2, §3, §4, §5

[19] = system: SF-268; test: NCI single-dose screen (SRB); type: cell-based; details: Homo sapiens; CNS Cancer SF-268; 10^−5 M; read-out: Growth inhibition percentage
Experimental: as §1, §2, §3, §4, §5

[20] = system: OVCAR-4; test: NCI single-dose screen (SRB); type: cell-based; details: Homo sapiens; Ovarian Cancer OVCAR-4; 10^−5 M; read-out: Growth inhibition percentage
Experimental: as §1, §2, §3, §4, §5

[21] = system: NCI-H522; test: NCI single-dose screen (SRB); type: cell-based; details: Homo sapiens; Non-Small-Cell Lung Cancer NCI-H522; 10^−5 M; read-out: Growth inhibition percentage
Experimental: as §1, §2, §3, §4, §5

[22] = system: DU-145; test: NCI single-dose screen (SRB); type: cell-based; details: Homo sapiens; Prostate Cancer DU-145; 10^−5 M; read-out: Growth inhibition percentage
Experimental: as §1, §2, §3, §4, §5

[23] = system: SF-539; test: NCI single-dose screen (SRB); type: cell-based; details: Homo sapiens; CNS Cancer SF-539; 10^−5 M; read-out: Growth inhibition percentage
Experimental: as §1, §2, §3, §4, §5

[24] = system: RPMI-8226; test: NCI single-dose screen (SRB); type: cell-based; details: Homo sapiens; Leukemia RPMI-8226; 10^−5 M; read-out: Growth inhibition percentage
Experimental: as §1, §2, §3, §4, §5

[25] = system: SK-MEL-28; test: NCI single-dose screen (SRB); type: cell-based; details: Homo sapiens; Melanoma SK-MEL-28; 10^−5 M; read-out: Growth inhibition percentage
Experimental: as §1, §2, §3, §4, §5

[26] = system: HL-60(TB); test: NCI single-dose screen (SRB); type: cell-based; details: Homo sapiens; Leukemia HL-60(TB); 10^−5 M; read-out: Growth inhibition percentage
Experimental: as §1
Briefly, the protocol was performed on 60 human tumor cell lines derived from different nine neoplastic diseases. […] If the results obtained met selection criteria, then the compound was tested again on all 60 cell lines in 5× 10-fold dilutions with the top dose being 10^−4 M or 150 μg/mL. Detailed methods are described in the Supplementary Materials related to this article. […]
on their site (http://www.dtp.nci.nih.gov). But briefly, the protocol performed at sixty human […]
National Cancer Institute, Bethesda, USA. If the results obtained meet selection criteria, then the […]
10-4 molar or 150 μg/mL. Detailed methods are described in supplementary material related to […]
2. MTT- Cytotoxicity assay method […]
should not exceed 10^6 cells/cm2. Each test should include a blank containing complete medium […]
salt solution without phenol red and serum. Add reconstituted MTT in an amount equal to 10% of the culture medium volume.

[27] = Homo sapiens, RPMI-8226, read-out: Cytotoxicity IC50 RPMI-8226, MTT, mean ± SD

SMILES	IC50 [2] [nM]	inhibition at 10 µM [3] [%]	inhibition at 10 µM [4] [%]	inhibition at 10 µM [5] [%]	inhibition at 10 µM [6] [%]	inhibition at 10 µM [7] [%]	inhibition at 10 µM [8] [%]	inhibition at 10 µM [9] [%]	inhibition at 10 µM [10] [%]	inhibition at 10 µM [11] [%]	inhibition at 10 µM [12] [%]	inhibition at 10 µM [13] [%]	inhibition at 10 µM [14] [%]	inhibition at 10 µM [15] [%]	inhibition at 10 µM [16] [%]	inhibition at 10 µM [17] [%]	inhibition at 10 µM [18] [%]	inhibition at 10 µM [19] [%]	inhibition at 10 µM [20] [%]	inhibition at 10 µM [21] [%]	other results
COc1cc2c(c(OC)c1OC)-c1ccc(OC)c(=O)cc1[C@@H](NC(C)=O)CC2 [Colchicine, colchicine, reference compound]	1810 ± 70.1																				IC50 ([1]; Homo sapiens, RPMI-8226, read-out: Cytotoxicity IC50 RPMI-8226): 4.05 ± 0.0478 µM
COC(=O)C=C1SC(=NNC(=O)c2cc3ccc2CCc2ccc(cc2)CC3)N(c2ccccc2)C1=O [Compound 3a]	1110 ± 68.5	74.8	30.6	41.5	52.3	46.9	99.7	21.2	136	41	54.3	64.5	116	138	113	51.8	94.7	27.5	70.6	58.5	inhibition at 10 µM [22]: 49.1%; inhibition at 10 µM [23]: 122%; inhibition at 10 µM [24]: 121%; inhibition at 10 µM [25]: 17.5%; IC50 [1, 27]: 1.61 ± 0.0654 µM; inhibition at 10 µM [26]: 83.6%
COC(=O)C=C1SC(=NNC(=O)c2cc3ccc2CCc2ccc(cc2)CC3)N(Cc2ccccc2)C1=O [Compound 3b]	2020 ± 68.8	48.1	17.7	55	27.3	36.6	72.2	11.6	82.2	10.6	48.8	89.7	115	106	87.6	34.6	84.4	14.9	55.4	84.1	inhibition at 10 µM [22]: 16.8%; inhibition at 10 µM [23]: 56.7%; inhibition at 10 µM [24]: 147%; inhibition at 10 µM [25]: 0%; IC50 [1, 27]: 4.62 ± 0.0459 µM; inhibition at 10 µM [26]: 105%
COC(=O)C=C1SC(=Nc2cccnc2)N(NC(=O)c2cc3ccc2CCc2ccc(cc2)CC3)C1=O [Compound 3c, Methyl (E)-2-((E)-3-[2.2]paracyclophanyl)amido-4-oxo-2-(pyridin-3-ylimino)-thiazolidin-5-ylidene)acetate]	4840 ± 84.2	10.7	3.64	21.9	0	7.99	11.8	0	18.2	5.63	0.25	18.4	74.2	31.1	7.71	0.61	4.78	3.08	7.76	17.7	inhibition at 10 µM [22]: 0%; inhibition at 10 µM [23]: 11.6%; inhibition at 10 µM [24]: 83%; inhibition at 10 µM [25]: 0.86%; IC50 [1, 27]: 9.69 µM; IC50 ([1]; read-out: Cytotoxicity IC50 RPMI-8226, MTT, mean ± SD): 9.96 ± 0.345 µM; inhibition at 10 µM [26]: 48.6%
COC(=O)/C=C1/S/C(=N/NC(=O)c2cc3ccc2CCc2ccc(cc2)CC3)N(C2CC2)C1=O [Compound 3f]		18	14.5	21.7	4.48	19.2	29.4	11.3	18.9	8.8	24.7	26.8	39.1	23	24	0	24.5	2.56	10.5	30	inhibition at 10 µM [22]: 6.2%; inhibition at 10 µM [23]: 0%; inhibition at 10 µM [24]: 49.8%; inhibition at 10 µM [25]: 10.3%; inhibition at 10 µM [26]: 26.4%

— article PMC7411887, “New Paracyclophanylthiazoles with Anti-Leukemia Activity: Design, Synthesis, Molecular Docking, and Mechanistic Studies” (Molecules, 2020)
